Each molecule was assayed against GCN2 (Homo sapiens, UniProt Q9P2K8) (assay: TR-FRET biochemical assay for inhibition of GCN2 (Example 106, for Example 1-4BB)). Conditions: Table 8.
Chain of GCN2 (Q9P2K8 whole entry): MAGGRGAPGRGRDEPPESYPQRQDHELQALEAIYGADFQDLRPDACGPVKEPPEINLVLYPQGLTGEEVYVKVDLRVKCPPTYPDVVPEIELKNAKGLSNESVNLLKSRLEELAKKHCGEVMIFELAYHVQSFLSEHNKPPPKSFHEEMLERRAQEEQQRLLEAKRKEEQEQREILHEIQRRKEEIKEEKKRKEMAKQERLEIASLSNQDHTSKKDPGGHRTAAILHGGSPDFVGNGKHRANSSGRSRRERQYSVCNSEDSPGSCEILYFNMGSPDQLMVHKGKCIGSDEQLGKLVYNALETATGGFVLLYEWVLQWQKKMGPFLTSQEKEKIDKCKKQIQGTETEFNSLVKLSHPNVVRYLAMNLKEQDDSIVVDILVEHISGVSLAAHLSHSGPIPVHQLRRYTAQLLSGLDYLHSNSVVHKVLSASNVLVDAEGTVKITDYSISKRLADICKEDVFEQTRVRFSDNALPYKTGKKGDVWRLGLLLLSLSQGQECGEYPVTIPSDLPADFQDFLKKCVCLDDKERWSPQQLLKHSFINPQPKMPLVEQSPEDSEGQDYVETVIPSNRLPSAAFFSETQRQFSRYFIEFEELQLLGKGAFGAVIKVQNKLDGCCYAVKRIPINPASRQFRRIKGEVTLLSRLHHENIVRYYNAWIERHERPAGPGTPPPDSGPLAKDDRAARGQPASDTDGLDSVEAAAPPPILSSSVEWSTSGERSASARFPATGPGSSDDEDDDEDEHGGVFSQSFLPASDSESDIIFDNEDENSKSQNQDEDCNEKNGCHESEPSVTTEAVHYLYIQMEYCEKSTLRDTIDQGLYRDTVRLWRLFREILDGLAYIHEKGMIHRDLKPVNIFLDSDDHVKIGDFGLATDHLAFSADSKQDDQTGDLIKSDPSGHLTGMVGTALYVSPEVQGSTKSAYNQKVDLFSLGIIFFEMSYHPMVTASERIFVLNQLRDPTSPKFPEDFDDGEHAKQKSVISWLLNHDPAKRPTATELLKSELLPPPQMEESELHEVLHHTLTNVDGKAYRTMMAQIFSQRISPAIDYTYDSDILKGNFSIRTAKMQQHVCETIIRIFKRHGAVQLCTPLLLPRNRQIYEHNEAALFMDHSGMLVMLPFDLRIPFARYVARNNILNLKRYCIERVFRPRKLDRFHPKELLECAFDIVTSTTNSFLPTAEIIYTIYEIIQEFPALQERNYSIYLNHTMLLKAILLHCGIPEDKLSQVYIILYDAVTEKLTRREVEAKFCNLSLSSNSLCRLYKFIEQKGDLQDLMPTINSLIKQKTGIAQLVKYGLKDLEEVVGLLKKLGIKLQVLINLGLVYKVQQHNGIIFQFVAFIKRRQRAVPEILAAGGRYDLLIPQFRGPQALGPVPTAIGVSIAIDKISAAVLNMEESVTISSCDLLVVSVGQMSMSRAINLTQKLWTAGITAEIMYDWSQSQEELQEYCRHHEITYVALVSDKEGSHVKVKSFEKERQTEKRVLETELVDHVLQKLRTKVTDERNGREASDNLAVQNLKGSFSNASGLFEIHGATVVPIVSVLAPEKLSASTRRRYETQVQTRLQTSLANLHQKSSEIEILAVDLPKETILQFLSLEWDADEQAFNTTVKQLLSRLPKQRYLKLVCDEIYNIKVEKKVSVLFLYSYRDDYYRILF

| IC50 | SMILES |
| --- | --- |
| < 0.5 µM | O=S(=O)(Nc1ccc(F)c(-c2ccc3c(-c4ncc[nH]4)n[nH]c3c2F)c1F)c1ccc(Cl)cc1Cl [Example 2BN, 2,4-dichloro-N-(2,4-difluoro-3-(7-fluoro-3-(1H-imidazol-2-yl)-1H-indazol-6-yl)phenyl)-benzenesulfonamide] |
| < 0.5 µM | Cc1nn(C(F)F)cc1S(=O)(=O)Nc1ccc(F)c(-c2ccc3c(-c4ncc[nH]4)n[nH]c3c2F)c1F [Example 2BU, N-(2,4-difluoro-3-(7-fluoro-3-(1H-imidazol-2-yl)-1H-indazol-6-yl)phenyl)-1-(difluoromethyl)-3-methyl-1H-pyrazole-4-sulfonamide] |
| < 0.5 µM | COc1ncc(Cl)cc1S(=O)(=O)Nc1ccc(F)c(-c2ccc3c(-c4ccn[nH]4)n[nH]c3c2F)c1F [Example 2BZ, 5-chloro-N-(2,4-difluoro-3-(7-fluoro-3-(1H-pyrazol-5-yl)-1H-indazol-6-yl)phenyl)-2-methoxypyridine-3-sulfonamide] |
| < 0.5 µM | COc1ncc(Cl)cc1S(=O)(=O)Nc1ccc(F)c(-c2ccc3c(C(=O)NCC(C)C)n[nH]c3c2F)c1F [Example 2CJ, 6-(3-((5-chloro-2-methoxy-pyridine)-3-sulfonamido)-2,6-difluorophenyl)-7-fluoro-N-isobutyl-1H-indazole-3-carboxamide] |
| < 0.5 µM | Cc1ncccc1S(=O)(=O)Nc1ccc(F)c(-c2ccc3c(-c4ncc[nH]4)n[nH]c3c2F)c1F [Example 2, N-(2,4-difluoro-3-(7-fluoro-3-(1H-imidazol-2-yl)-1H-indazol-6-yl)phenyl)-2-methylpyridine-3-sulfonamide] |
| 0.5 to 2.5 µM | Cn1cc(S(=O)(=O)Nc2ccc(F)c(-c3ccc4c(-c5ncc[nH]5)n[nH]c4c3F)c2F)c(Cl)n1 [Example 2H, 3-chloro-N-(2,4-difluoro-3-(7-fluoro-3-(1H-imidazol-2-yl)-1H-indazol-6-yl)phenyl)-1-methyl-1H-pyrazole-4-sulfonamide] |
| < 0.5 µM | O=S(=O)(Nc1ccc(F)c(-c2ccc3c(-c4ncc[nH]4)n[nH]c3c2F)c1F)c1cccc(CO)c1 [Example 3, N-(2,4-Difluoro-3-(7-fluoro-3-(1H-imidazol-2-yl)-1H-indazol-6-yl)phenyl)-3-(hydroxymethyl)benzenesulfonamide] |
| < 0.5 µM | O=S(=O)(Nc1ccc(F)c(-c2ccc3c(-c4ncc[nH]4)n[nH]c3c2F)c1F)c1cc(Cl)ccc1F [Example 2BD, 5-chloro-N-(2,4-difluoro-3-(7-fluoro-3-(1H-imidazol-2-yl)-1H-indazol-6-yl)phenyl)-2-fluorobenzenesulfonamide] |
| < 0.5 µM | COc1ncc(Cl)cc1S(=O)(=O)Nc1ccc(F)c(-c2ccc3c(C(=O)NCCCN(C)C)n[nH]c3c2F)c1F [Example 2CG, 6-(3-((5-chloro-2-methoxy-pyridine)-3-sulfonamido)-2,6-difluorophenyl)-N-(3-(di-methylamino)propyl)-7-fluoro-1H-indazole-3-carboxamide] |

Same assay, conditions: Table 9

| IC50 | SMILES |
| --- | --- |
| < 0.5 µM | COc1ncc(F)cc1S(=O)(=O)Nc1ccc(F)c(-c2ccc3c(C(=O)NCCCNC(C)=O)n[nH]c3c2F)c1F [Example 3AV, N-(3-acetamidopropyl)-6-(2,6-difluoro-3-((5-fluoro-2-methoxypyridine)-3-sulfon-amido)phenyl)-7-fluoro-1H-indazole-3-carboxamide] |
| 0.5 to 2.5 µM | Cc1ncc(F)cc1S(=O)(=O)Nc1cccc(-c2ccc3c(-c4ncc[nH]4)n[nH]c3c2Cl)c1F [Example 3N, N-(3-(7-chloro-3-(1H-imidazol-2-yl)-1H-indazol-6-yl)-2-fluorophenyl)-5-fluoro-2-methylpyridine-3-sulfonamide] |
| < 0.5 µM | COc1ncc(F)cc1S(=O)(=O)Nc1ccc(F)c(-c2ccc3c(C(=O)NCCC(N)=O)n[nH]c3c2F)c1F [Example 3AL, N-(3-amino-3-oxopropyl)-6-(2,6-difluoro-3-((5-fluoro-2-methoxypyridine)-3-sulfonamido)phenyl)-7-fluoro-1H-indazole-3-carboxamide] |
| < 0.5 µM | COc1ncc(F)cc1S(=O)(=O)Nc1ccc(F)c(-c2ccc3c(-c4nc(CO)c[nH]4)n[nH]c3c2F)c1F [Example 3X, N-(2,4-difluoro-3-(7-fluoro-3-(4-(hydroxymethyl)-1H-imidazol-2-yl)-1H-indazol-6-yl)phenl)-5-fluoro-2-methoxypyridine-3-sulfonamide] |
| < 0.5 µM | Cc1ncc(C#N)cc1S(=O)(=O)Nc1ccc(F)c(-c2ccc3c(-c4ncc[nH]4)n[nH]c3c2F)c1F [Example 3I, 5-cyano-N-(2,4-difluoro-3-(7-fluoro-3-(1H-imidazol-2-yl)-1H-indazol-6-yl)phenyl)-2-methylpyridine-3-sulfonamide] |
| 2.5 to 10 µM | COc1ncc(CO)cc1S(=O)(=O)Nc1ccc(F)c(-c2ccc3c(C(=O)NCCCO)n[nH]c3c2F)c1F [Example 3CN, 6-(2,6-difluoro-3-((5-(hydroxylmethyl)-2-methoxy-pyridine)-3-sulfonamido)-phenyl)-7-fluoro-N-(3-hydroxypropyl)-1H-indazole-3-carboxamide] |
| 0.5 to 2.5 µM | COc1ncc(F)cc1S(=O)(=O)Nc1ccc(C#N)c(-c2ccc3c(C(N)=O)n[nH]c3c2F)c1F [Example 3BR, 6-(6-cyano-2-fluoro-3-((5-fluoro-2-methoxypyridine)-3-sulfonamido)phenyl)-7-fluoro-1H-indazole-3-carboxamide] |
| < 0.5 µM | COc1ncc(F)cc1S(=O)(=O)Nc1ccc(F)c(-c2ccc3c(C(=O)Nc4ccc(=O)n(C)c4)n[nH]c3c2F)c1F [Example 3BP, 6-(2,6-difluoro-3-((5-fluoro-2-methoxypyridine)-3-sulfonamido)phenyl)-7-fluoro-N-(1-methyl-6-oxo-1,6-dihydropyridin-3-yl)-1H-indazole-3-carboxamide] |
| 0.5 to 2.5 µM | COc1ncccc1S(=O)(=O)Nc1ccc(F)c(-c2ccc3c(C(N)=O)n[nH]c3c2F)c1F [Example 3BJ, 6-(2,6-difluoro-3-((2-methoxypyridine)-3-sulfonamido)phenyl)-7-fluoro-1H-indazole-3-carboxamide] |
| > 10 µM | Cc1ncc(F)cc1S(=O)(=O)Nc1cc(C#N)cc(-c2ccc3c(-c4ncc[nH]4)n[nH]c3c2F)c1F [Example 3CC, N-(5-cyano-2-fluoro-3-(7-fluoro-3-(1H-imidazol-2-yl)-1H-indazol-6-yl)phenyl)-5-fluoro-2-methylpyridine-3-sulfonamide] |
| < 0.5 µM | COc1ncc(F)cc1S(=O)(=O)Nc1cc(F)cc(-c2ccc3c(C(N)=O)n[nH]c3c2F)c1F [Example 3AQ, 6-(2,5-difluoro-3-((5-fluoro-2-methoxypyridine)-3-sulfon-amido)phenyl)-7-fluoro-1H-indazole-3-carboxamide] |
| > 10 µM | NC1CCc2c1cc(F)cc2S(=O)(=O)Nc1ccc(F)c(-c2ccc3c(-c4ncc[nH]4)n[nH]c3c2F)c1F (centres unmarked) [Example 4AO] |
| < 0.5 µM | COc1ncc(F)cc1S(=O)(=O)Nc1ccc(F)c(-c2ccc3c(C(=O)NCC[C@H](O)CO)n[nH]c3c2F)c1F [Example 3BE, 6-(2,6-difluoro-3-((5-fluoro-2-methoxypyridine)-3-sulfonamido)phenyl)-N-((S)-3,4-dihydroxybutyl)-7-fluoro-1H-indazole-3-carboxamide] |
| < 0.5 µM | Cc1ccc(S(=O)(=O)Nc2ccc(F)c(-c3ccc4c(C(=O)Nc5cnn(C)c5)n[nH]c4c3F)c2F)c(C)n1 [Example 3DH, 6-(3-((2,6-dimethylpyridine)-3-sulfonamido)-2,6-difluoro-phenyl)-7-fluoro-N-(1-methyl-1H-pyrazol-4-yl)-1H-indazole-3-carboxamide] |
| < 0.5 µM | COc1ncc(C#N)cc1S(=O)(=O)Nc1cc(F)cc(-c2ccc3c(C(=O)NCCCO)n[nH]c3c2F)c1F [Example 3DP, 6-(3-((5-cyano-2-methoxy-pyridine)-3-sulfonamido)-2,5-difluorophenyl)-7-fluoro-N-(3-hydroxypropyl)-1H-indazole-3-carboxamide] |
| < 0.5 µM | COc1ncc(Cl)cc1S(=O)(=O)Nc1cc(F)cc(-c2ccc3c(C(=O)N[C@H]4CCN(C)C4)n[nH]c3c2F)c1F [Example 3BM, 6-(3-((5-chloro-2-methoxy-pyridine)-3-sulfonamido)-2,5-difluorophenyl)-7-fluoro-N-((S)-1-methylpyrrolidin-3-yl)-1H-indazole-3-carboxamide] |
| 0.5 to 2.5 µM | COc1ncc(F)cc1S(=O)(=O)Nc1ccc(F)c(-c2ccc3c(C(=O)NCC(N)=O)n[nH]c3c2F)c1F [Example 3AM, N-(2-amino-2-oxoethyl)-6-(2,6-difluoro-3-((5-fluoro-2-methoxypyridine)-3-sulfon-amido)phenyl)-7-fluoro-1H-indazole-3-carboxamide] |
| < 0.5 µM | COc1ncccc1S(=O)(=O)Nc1cccc(-c2ccc3c(-c4ncc[nH]4)n[nH]c3c2F)c1F [Example 3W, N-(2-fluoro-3-(7-fluoro-3-(1H-imidazol-2-yl)-1H-indazol-6-yl)phenyl)-2-methoxypyridine-3-sulfonamide] |
| < 0.5 µM | CC1CCc2c1cc(F)cc2S(=O)(=O)Nc1ccc(F)c(-c2ccc3c(-c4ncc[nH]4)n[nH]c3c2F)c1F (centres unmarked) [Example 4AQ] |
| < 0.5 µM | COc1ncc(Cl)cc1S(=O)(=O)Nc1cc(F)cc(-c2ccc3c(-c4ncc[nH]4)n[nH]c3c2F)c1F [Example 3C, 5-chloro-N-(2,5-difluoro-3-(7-fluoro-3-(1H-imidazol-2-yl)-1H-indazol-6-yl)phenyl)-2-methoxypyridine-3-sulfonamide] |

Further lines, the molecule ahead of its results:

| SMILES | IC50 |
| --- | --- |
| COc1ncc(F)cc1S(=O)(=O)Nc1ccc(F)c(-c2ccc3c(-c4nc(C(O)CO)c[nH]4)n[nH]c3c2F)c1F (centres unmarked) [Example 21, N-(3-(3-(4-(1,2-Dihydroxyethyl)-1H-imidazol-2-yl)-7-fluoro-1H-indazol-6-yl)-2,4-difluorophenyl)-5-fluoro-2-methoxypyridine-3-sulfonamide] | < 0.5 µM |
| COc1ncc(F)cc1S(=O)(=O)Nc1ncc(F)c(-c2ccc3c(-c4ncc[nH]4)n[nH]c3c2F)c1F [Example 28, N-(3,5-Difluoro-4-(7-fluoro-3-(1H-imidazol-2-yl)-1H-indazol-6-yl)pyridin-2-yl)-5-fluoro-2-methoxypyridine-3-sulfonamide] | < 0.5 µM |
| COc1cccc(-c2n[nH]c3c(F)c(-c4c(F)ccc(NS(=O)(=O)c5cc(F)cnc5C)c4F)ccc23)n1 [Example 14, N-(2,4-Difluoro-3-(7-fluoro-3-(6-methoxypyridin-2-yl)-1H-indazol-6-yl)phenyl)-5-fluoro-2-methylpyridine-3-sulfonamide] | 0.5 to 2.5 µM |

— patent US20220388964A1 (HiberCell, Inc., priority 2019, published 2022)
